#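 Compound exposure: 48 hours, 5 concentrations, 96-well plates. The concentration for 50% growth inhibition is given as GI50. The concentration for full growth arrest is given as TGI.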
# What was measured:
# Test in all cases: NCI anticancer screen, dose series, 48 h
# HCT-116 colon = tested on: HCT-116 colon
# HS 578T breast = tested on: HS 578T breast
# SK-MEL-2 melanoma = tested on: SK-MEL-2 melanoma
# NCI-H23 lung = tested on: NCI-H23 lung
# OVCAR-8 ovarian = tested on: OVCAR-8 ovarian
# SR leukemia = tested on: SR leukemia
# SK-MEL-5 melanoma = tested on: SK-MEL-5 melanoma
# K-562 leukemia = tested on: K-562 leukemia
# MALME-3M melanoma = tested on: MALME-3M melanoma
# MDA-MB-231 breast = tested on: MDA-MB-231 breast
# RPMI-8226 leukemia = tested on: RPMI-8226 leukemia
# CCRF-CEM leukemia = tested on: CCRF-CEM leukemia
# NCI-H226 lung = tested on: NCI-H226 lung
# A498 renal = tested on: A498 renal
# LOX IMVI melanoma = tested on: LOX IMVI melanoma
# SNB-75 CNS = tested on: SNB-75 CNS
# SW-620 colon = tested on: SW-620 colon
# SN12C renal = tested on: SN12C renal
# KM12 colon = tested on: KM12 colon
# SF-539 CNS = tested on: SF-539 CNS
# COLO 205 colon = tested on: COLO 205 colon
# HCC-2998 colon = tested on: HCC-2998 colon
# HOP-92 NSCLC = tested on: HOP-92 NSCLC
# SF-295 CNS = tested on: SF-295 CNS
# HCT-15 colon = tested on: HCT-15 colon
# SNB-19 CNS = tested on: SNB-19 CNS
# DU-145 prostate = tested on: DU-145 prostate
# HOP-62 NSCLC = tested on: HOP-62 NSCLC
smiles,measurement,setting,value
O=C(C[P+](c1ccccc1)(c1ccccc1)c1ccccc1)C[P+](c1ccccc1)(c1ccccc1)c1ccccc1,GI50,HCT-116 colon,203 nM
same,TGI,HCT-116 colon,547 nM
same,GI50,HS 578T breast,581 nM
same,TGI,HS 578T breast,4500 nM
same,GI50,SK-MEL-2 melanoma,341 nM
same,TGI,SK-MEL-2 melanoma,1040 nM
same,GI50,NCI-H23 lung,253 nM
same,TGI,NCI-H23 lung,888 nM
same,GI50,OVCAR-8 ovarian,318 nM
same,TGI,OVCAR-8 ovarian,2310 nM
same,GI50,SR leukemia,310 nM
same,TGI,SR leukemia,3890 nM
same,GI50,SK-MEL-5 melanoma,625 nM
same,TGI,SK-MEL-5 melanoma,1800 nM
same,GI50,K-562 leukemia,306 nM
same,TGI,K-562 leukemia,7490 nM
same,GI50,MALME-3M melanoma,335 nM
same,TGI,MALME-3M melanoma,1480 nM
same,GI50,MDA-MB-231 breast,320 nM
same,TGI,MDA-MB-231 breast,1400 nM
same,GI50,RPMI-8226 leukemia,271 nM
same,TGI,RPMI-8226 leukemia,1810 nM
same,GI50,CCRF-CEM leukemia,229 nM
same,TGI,CCRF-CEM leukemia,1050 nM
same,GI50,NCI-H226 lung,197 nM
same,TGI,NCI-H226 lung,612 nM
same,GI50,A498 renal,223 nM
same,TGI,A498 renal,1020 nM
same,GI50,LOX IMVI melanoma,235 nM
same,TGI,LOX IMVI melanoma,637 nM
same,GI50,SNB-75 CNS,254 nM
same,TGI,SNB-75 CNS,1440 nM
same,GI50,SW-620 colon,242 nM
same,TGI,SW-620 colon,816 nM
same,GI50,SN12C renal,682 nM
same,TGI,SN12C renal,2140 nM
same,GI50,KM12 colon,1130 nM
same,TGI,KM12 colon,2630 nM
same,GI50,SF-539 CNS,286 nM
same,TGI,SF-539 CNS,1130 nM
same,GI50,COLO 205 colon,398 nM
same,TGI,COLO 205 colon,1510 nM
same,GI50,HCC-2998 colon,784 nM
same,TGI,HCC-2998 colon,2170 nM
same,GI50,HOP-92 NSCLC,69.6 nM
same,TGI,HOP-92 NSCLC,294 nM
same,GI50,SF-295 CNS,1460 nM
same,TGI,SF-295 CNS,2980 nM
same,GI50,HCT-15 colon,241 nM
same,TGI,HCT-15 colon,1600 nM
same,GI50,SNB-19 CNS,1310 nM
same,TGI,SNB-19 CNS,2780 nM
same,GI50,DU-145 prostate,327 nM
same,TGI,DU-145 prostate,1300 nM
same,GI50,HOP-62 NSCLC,1460 nM
same,TGI,HOP-62 NSCLC,2840 nM

# Reference: PubChem BioAssay (NCI)
